Measurements reported in PubChem BioAssay (NCI).
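48-hour exposure; five concentrations; linearly interpolated endpoints. GI50 = concentration required for 50% inhibition of growth. At the TGI there is no net growth.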

Tests used:
Assay in all cases: NCI tumour cell line growth inhibition, 48 h
[1] = test system: T-47D breast
[2] = test system: OVCAR-8 ovarian
[3] = test system: SK-OV-3 ovarian
[4] = test system: SF-295 CNS
[5] = test system: A498 renal
[6] = test system: RPMI-8226 leukemia
[7] = test system: COLO 205 colon
[8] = test system: CAKI-1 renal
[9] = test system: HCT-116 colon
[10] = test system: OVCAR-5 ovarian
[11] = test system: SK-MEL-2 melanoma
[12] = test system: MDA-MB-231 breast
[13] = test system: MCF7 breast
[14] = test system: HCT-15 colon
[15] = test system: SNB-75 CNS
[16] = test system: M14 melanoma
[17] = test system: SF-539 CNS
[18] = test system: KM12 colon
[19] = test system: K-562 leukemia
[20] = test system: NCI-H226 lung
[21] = test system: NCI-H522 lung
[22] = test system: IGROV1 ovarian
[23] = test system: NCI-H460 lung
[24] = test system: SF-268 CNS
[25] = test system: SR leukemia
[26] = test system: MDA-MB-435
[27] = test system: HOP-92 NSCLC
[28] = test system: EKVX NSCLC
[29] = test system: HCC-2998 colon
[30] = test system: OVCAR-3 ovarian
[31] = test system: SK-MEL-5 melanoma
[32] = test system: NCI/ADR-RES ovarian
[33] = test system: ACHN renal
[34] = test system: NCI-H23 lung
[35] = test system: HL-60(TB) leukemia
[36] = test system: UO-31 renal
[37] = test system: MALME-3M melanoma
[38] = test system: TK-10 renal
[39] = test system: SN12C renal
[40] = test system: HOP-62 NSCLC
[41] = test system: SW-620 colon
[42] = test system: OVCAR-4 ovarian
[43] = test system: SNB-19 CNS
[44] = test system: 786-0 renal
[45] = test system: DU-145 prostate
[46] = test system: A549 NSCLC
[47] = test system: U251 CNS
[48] = test system: SK-MEL-28 melanoma
[49] = test system: HS 578T breast
[50] = test system: RXF 393 renal
[51] = test system: BT-549 breast
[52] = test system: UACC-62 melanoma
[53] = test system: PC-3 prostate
[54] = test system: MOLT-4 leukemia
[55] = test system: LOX IMVI melanoma
[56] = test system: CCRF-CEM leukemia
[57] = test system: UACC-257 melanoma
[58] = test system: HT29 colon

Work on O=c1cc(CNc2cc(F)cc(F)c2)c2ccc(I)cc2[nH]1 yielded a GI50 [1] of 1010 nM, a TGI [1] greater than 100000 nM and a GI50 [2] of 2830 nM. For the same molecule, the TGI [2] was greater than 100000 nM, the GI50 [3] was 1110 nM and the TGI [3] was greater than 100000 nM. It also gave a GI50 [4] of 441 nM, a TGI [4] greater than 100000 nM and a GI50 [5] of 279 nM. The GI50 [6] was 759 nM, the TGI [6] was greater than 100000 nM and the GI50 [7] was 606 nM. It also gave a TGI [7] greater than 100000 nM, a GI50 [8] of 421 nM and a TGI [8] greater than 100000 nM. For the same molecule, the GI50 [9] was 492 nM, the TGI [9] was greater than 100000 nM and the GI50 [10] was 16200 nM. For the same molecule, the TGI [10] was greater than 100000 nM, the GI50 [11] was 1440 nM and the TGI [11] was greater than 100000 nM. It also gave a GI50 [12] of 77800 nM, a TGI [12] greater than 100000 nM and a GI50 [13] of 388 nM. For the same molecule, the TGI [13] was greater than 100000 nM, the GI50 [14] was 387 nM and the TGI [14] was greater than 100000 nM. For the same molecule, the GI50 [15] was 199 nM, the TGI [15] was 3450 nM and the GI50 [16] was 520 nM. The TGI [16] was greater than 100000 nM, the GI50 [17] was 461 nM and the TGI [17] was greater than 69900 nM. For the same molecule, the GI50 [18] was 423 nM, the TGI [18] was greater than 100000 nM and the GI50 [19] was 203 nM. It also gave a TGI [19] greater than 100000 nM, a TGI [20] greater than 100000 nM and a GI50 [21] of 305 nM. The TGI [21] was greater than 100000 nM, the GI50 [22] was 2560 nM and the TGI [22] was greater than 100000 nM. For the same molecule, the GI50 [23] was 427 nM, the TGI [23] was greater than 100000 nM and the TGI [24] was greater than 100000 nM. It also gave a GI50 [25] of 129 nM, a TGI [25] greater than 100000 nM and a GI50 [26] of 108 nM. For the same molecule, the TGI [26] was 499 nM, the GI50 [27] was 1420 nM and the TGI [27] was greater than 100000 nM. The GI50 [28] was 2330 nM, the TGI [28] was greater than 100000 nM and the GI50 [29] was greater than 64900 nM. For the same molecule, the TGI [29] was greater than 100000 nM, the GI50 [30] was 336 nM and the TGI [30] was 39600 nM. For the same molecule, the GI50 [31] was 641 nM, the TGI [31] was greater than 100000 nM and the GI50 [32] was 537 nM. For the same molecule, the TGI [32] was greater than 100000 nM, the GI50 [33] was 750 nM and the TGI [33] was greater than 100000 nM. The GI50 [34] was 6360 nM, the TGI [34] was greater than 100000 nM and the GI50 [35] was 337 nM. The TGI [35] was greater than 51100 nM, the GI50 [36] was 4270 nM and the TGI [36] was greater than 100000 nM. The GI50 [37] was 714 nM, the TGI [37] was greater than 100000 nM and the GI50 [38] was greater than 100000 nM. For the same molecule, the TGI [38] was greater than 100000 nM, the GI50 [39] was 798 nM and the TGI [39] was greater than 100000 nM. For the same molecule, the GI50 [40] was 1980 nM, the TGI [40] was greater than 100000 nM and the GI50 [41] was 384 nM. For the same molecule, the TGI [41] was greater than 100000 nM, the GI50 [42] was 72700 nM and the TGI [42] was greater than 100000 nM. The GI50 [43] was 637 nM, the TGI [43] was greater than 100000 nM and the GI50 [44] was 1050 nM. The TGI [44] was greater than 100000 nM, the GI50 [45] was 1690 nM and the TGI [45] was greater than 100000 nM. It also gave a GI50 [46] of 707 nM, a TGI [46] greater than 100000 nM and a GI50 [47] of 574 nM. The TGI [47] was greater than 100000 nM, the GI50 [48] was greater than 67300 nM and the TGI [48] was greater than 100000 nM. For the same molecule, the GI50 [49] was 410 nM, the TGI [49] was greater than 100000 nM and the GI50 [50] was 374 nM. The TGI [50] was 38000 nM, the GI50 [51] was 1020 nM and the TGI [51] was greater than 100000 nM. For the same molecule, the GI50 [52] was 508 nM, the TGI [52] was greater than 100000 nM and the GI50 [53] was 571 nM. The TGI [53] was greater than 100000 nM, the GI50 [54] was 1060 nM and the TGI [54] was greater than 100000 nM. The GI50 [55] was 679 nM, the TGI [55] was greater than 100000 nM and the GI50 [56] was 498 nM. For the same molecule, the TGI [56] was greater than 57700 nM, the GI50 [57] was greater than 100000 nM and the TGI [57] was greater than 100000 nM. The GI50 [58] was 361 nM and the TGI [58] was greater than 100000 nM.
